Measurements as given in the supplement of paper PMC11061612.

What was measured:
Assay in all cases: Bliss excess, mean over the matrix (fraction); higher = more synergy
HMV-II (Melanoma) = tested on: HMV-II (Melanoma)
Summary of the method: (§1)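 Bliss excess equals the observed combination effect minus the expected value EA + EB − EA·EB, where EA and EB are the effects of each agent alone. Combination Emax is the second-highest inhibition within the matrix. Inhibition was scaled from CellTiter-Glo 2.0 luminescence, with 0 set by vehicle wells and 1 by blank wells, after 72 hours of two-drug dosing of cells plated in 1536-well plates.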

[1] = tested on: EN (Endometrial Carcinoma)
Summary of the method: as §1

[2] = tested on: LoVo (Colorectal Carcinoma)
Summary of the method: as §1

[3] = tested on: 639-V (Bladder Carcinoma)
Summary of the method: as §1

NCI-H2795 (Mesothelioma) = tested on: NCI-H2795 (Mesothelioma)
Summary of the method: as §1

[4] = tested on: RPMI-6666 (Non-Cancerous)
Summary of the method: as §1

[5] = tested on: PCI-30 (Head and Neck Carcinoma)
Summary of the method: as §1

[6] = tested on: HO-1-u-1 (Oral Cavity Carcinoma)
Summary of the method: as §1

[7] = tested on: CTB-1 (B-Cell Non-Hodgkin's Lymphoma)
Summary of the method: as §1

NCI-H28 (Mesothelioma) = tested on: NCI-H28 (Mesothelioma)
Summary of the method: as §1

[8] = tested on: SW1271 (Small Cell Lung Carcinoma)
Summary of the method: as §1

SH-4 (Melanoma) = tested on: SH-4 (Melanoma)
Summary of the method: as §1

Mewo (Melanoma) = tested on: Mewo (Melanoma)
Summary of the method: as §1

[9] = tested on: SK-OV-3 (Ovarian Carcinoma)
Summary of the method: as §1

[10] = tested on: HARA (Squamous Cell Lung Carcinoma)
Summary of the method: as §1

[11] = tested on: OVCAR-8 (Ovarian Carcinoma)
Summary of the method: as §1

NB14 (Neuroblastoma) = tested on: NB14 (Neuroblastoma)
Summary of the method: as §1

[12] = tested on: K5 (Thyroid Gland Carcinoma)
Summary of the method: as §1

NCI-H2461 (Mesothelioma) = tested on: NCI-H2461 (Mesothelioma)
Summary of the method: as §1

[13] = tested on: NCI-H69 (Small Cell Lung Carcinoma)
Summary of the method: as §1

COc1cccc(OCCCN)c1-c1cc(Nc2cnc(C#N)cn2)n[nH]1 [Prexasertib] + C=CCn1c(=O)c2cnc(Nc3ccc(N4CCN(C)CC4)cc3)nc2n1-c1cccc(C(C)(C)O)n1 [AZD1775] (first compound max 1 µM, partner max 1 µM)
Bliss excess (HMV-II (Melanoma)): 0.0779
Bliss excess [1]: 0.0115
Bliss excess [2]: 0.0269
Bliss excess [3]: 0.178
Bliss excess (NCI-H2795 (Mesothelioma)): 0.0221
Bliss excess [4]: 0.0119
Bliss excess [5]: 0.0954
Bliss excess [6]: 0.0122
Bliss excess [7]: 0.0374
Bliss excess (NCI-H28 (Mesothelioma)): -0.0145
Bliss excess [8]: 0.0019
Bliss excess (SH-4 (Melanoma)): 0.0591
Bliss excess (Mewo (Melanoma)): 0.0641
Bliss excess [9]: 0.0324
Bliss excess [10]: 0.075
Bliss excess [11]: 0.0937
Bliss excess (NB14 (Neuroblastoma)): 0.0486
Bliss excess [12]: 0.0807
Bliss excess (NCI-H2461 (Mesothelioma)): -0.0573
Bliss excess [13]: 0.151

CN(CCO)CC[C@H](CSc1ccccc1)Nc1ccc(S(=O)(=O)NC(=O)c2ccc(N3CCC([C@@H](O)c4ccccc4-c4ccc(Cl)cc4)CC3)cc2)cc1S(=O)(=O)C(F)(F)F [AZD4320] + C1CN(CCC1(C(=O)N[C@@H](CCO)C2=CC=C(C=C2)Cl)N)C3=NC=NC4=C3C=CN4 [Capivasertib] (first compound max 1 µM, 7x7, partner max 3 µM)
Bliss excess (HMV-II (Melanoma)): -0.0431
Bliss excess [1]: -0.0343
Bliss excess [2]: -0.071
Bliss excess [3]: -0.0503
Bliss excess (NCI-H2795 (Mesothelioma)): -0.0572
Bliss excess [4]: 0.0083
Bliss excess [5]: -0.0402
Bliss excess [6]: -0.0621
Bliss excess [7]: -0.0277
Bliss excess (NCI-H28 (Mesothelioma)): -0.0821
Bliss excess [8]: -0.0606
Bliss excess (SH-4 (Melanoma)): -0.0462
Bliss excess (Mewo (Melanoma)): -0.0262
Bliss excess [9]: -0.0663
Bliss excess [10]: -0.0268
Bliss excess [11]: -0.0468
Bliss excess (NB14 (Neuroblastoma)): 0.0472
Bliss excess [12]: -0.0525
Bliss excess (NCI-H2461 (Mesothelioma)): -0.0564
Bliss excess [13]: -0.0153

COc1cccc(OCCCN)c1-c1cc(Nc2cnc(C#N)cn2)n[nH]1 [Prexasertib] + CCc1c2c(nc3ccc(O)cc13)-c1cc3c(c(=O)n1C2)COC(=O)[C@]3(O)CC [SN-38] (first compound max 1 µM, 7x7, partner max 0.3 µM)
Bliss excess (HMV-II (Melanoma)): -0.0304
Bliss excess [1]: 0.0282
Bliss excess [2]: -0.0727
Bliss excess [3]: -0.0477
Bliss excess (NCI-H2795 (Mesothelioma)): -0.106
Bliss excess [4]: -0.0554
Bliss excess [5]: 0.0215
Bliss excess [6]: 0.0348
Bliss excess [7]: -0.0622
Bliss excess (NCI-H28 (Mesothelioma)): -0.074
Bliss excess [8]: -0.088
Bliss excess (SH-4 (Melanoma)): -0.0831
Bliss excess (Mewo (Melanoma)): 0.0881
Bliss excess [9]: -0.0344
Bliss excess [10]: 0.0262
Bliss excess [11]: 0.0373
Bliss excess (NB14 (Neuroblastoma)): 0.0073
Bliss excess [12]: -0.0708
Bliss excess (NCI-H2461 (Mesothelioma)): -0.114
Bliss excess [13]: 0.162

CC1(C)CCC(CN2CCN(c3ccc(C(=O)NS(=O)(=O)c4ccc(NCC5CCOCC5)c([N+](=O)[O-])c4)c(Oc4cnc5[nH]ccc5c4)c3)CC2)=C(c2ccc(Cl)cc2)C1 [Venetoclax] + C[C@@H]1COCCN1C2=NC(=NC(=C2)C3(CC3)[S@](=N)(=O)C)C4=C5C=CNC5=NC=C4 [AZD6738] (first compound max 1 µM, 7x7, partner max 10 µM)
Bliss excess (HMV-II (Melanoma)): -0.0853
Bliss excess [1]: -0.0605
Bliss excess [2]: -0.0637
Bliss excess [3]: -0.0323
Bliss excess (NCI-H2795 (Mesothelioma)): -0.0578
Bliss excess [4]: 0.0224
Bliss excess [5]: -0.0076
Bliss excess [6]: 0.0026
Bliss excess [7]: -0.0184
Bliss excess (NCI-H28 (Mesothelioma)): -0.059
Bliss excess [8]: -0.0497
Bliss excess (SH-4 (Melanoma)): -0.022
Bliss excess (Mewo (Melanoma)): -0.0285
Bliss excess [9]: -0.012
Bliss excess [10]: -0.0787
Bliss excess [11]: -0.0444
Bliss excess (NB14 (Neuroblastoma)): -0.0005
Bliss excess [12]: -0.0758
Bliss excess (NCI-H2461 (Mesothelioma)): -0.026
Bliss excess [13]: -0.0494

CN(CCO)CC[C@H](CSc1ccccc1)Nc1ccc(S(=O)(=O)NC(=O)c2ccc(N3CCC([C@@H](O)c4ccccc4-c4ccc(Cl)cc4)CC3)cc2)cc1S(=O)(=O)C(F)(F)F [AZD4320] + Cc1cc2ncnn2cc1Nc1ncc2c(n1)n(C1CCOCC1)c(=O)n2C [AZD7648] (first compound max 1 µM, 7x7, partner max 10 µM)
Bliss excess (HMV-II (Melanoma)): -0.0718
Bliss excess [1]: -0.01
Bliss excess [2]: 0.0195
Bliss excess [3]: -0.0244
Bliss excess (NCI-H2795 (Mesothelioma)): -0.0395
Bliss excess [4]: 0.0311
Bliss excess [5]: -0.057
Bliss excess [6]: -0.0172
Bliss excess [7]: -0.0401
Bliss excess (NCI-H28 (Mesothelioma)): -0.055
Bliss excess [8]: -0.0386
Bliss excess (SH-4 (Melanoma)): -0.0459
Bliss excess (Mewo (Melanoma)): -0.0104
Bliss excess [9]: -0.063
Bliss excess [10]: -0.0133
Bliss excess [11]: -0.049
Bliss excess (NB14 (Neuroblastoma)): 0.0356
Bliss excess [12]: -0.0105
Bliss excess (NCI-H2461 (Mesothelioma)): -0.0484
Bliss excess [13]: -0.0474

Cc1c2c(nn1C)CSCc1cc(n(C)n1)CSc1cc(c3ccccc3c1)OCCCc1c(C(=O)O)n(C)c3c-2c(Cl)ccc13 [AZD5991] + Cn1cnc2c(F)c(Nc3ccc(Br)cc3Cl)c(C(=O)NOCCO)cc21 [Selumetinib] (first compound max 1 µM, 7x7, partner max 3 µM)
Bliss excess (HMV-II (Melanoma)): 0.0066
Bliss excess [1]: -0.0494
Bliss excess [2]: 0.0074
Bliss excess [3]: 0.0247
Bliss excess (NCI-H2795 (Mesothelioma)): 0.0278
Bliss excess [4]: 0.0387
Bliss excess [5]: -0.0352
Bliss excess [6]: 0.0168
Bliss excess [7]: -0.02
Bliss excess (NCI-H28 (Mesothelioma)): -0.026
Bliss excess [8]: -0.0287
Bliss excess (SH-4 (Melanoma)): 0.0465
Bliss excess (Mewo (Melanoma)): -0.0417
Bliss excess [9]: -0.0597
Bliss excess [10]: -0.0263
Bliss excess [11]: 0.0416
Bliss excess (NB14 (Neuroblastoma)): 0.0392
Bliss excess [12]: -0.0216
Bliss excess (NCI-H2461 (Mesothelioma)): -0.0131
Bliss excess [13]: -0.065

CN(C)CCCOc1ccc(-c2ccc3ncc4c(c3c2)n(C2CCOCC2)c(=O)n4C)cn1 [AZD0156] + CCN(CCO)CCCOc1ccc2c(Nc3cc(CC(=O)Nc4cccc(F)c4)[nH]n3)ncnc2c1 [AZD2811] (first compound max 1 µM, 7x7, partner max 1 µM)
Bliss excess (HMV-II (Melanoma)): -0.0133
Bliss excess [1]: 0.0456
Bliss excess [2]: 0.0047
Bliss excess [3]: 0.0064
Bliss excess (NCI-H2795 (Mesothelioma)): 0.0025
Bliss excess [4]: 0.0312
Bliss excess [5]: -0.013
Bliss excess [6]: 0.0299
Bliss excess [7]: 0.002
Bliss excess (NCI-H28 (Mesothelioma)): -0.0381
Bliss excess [8]: -0.0322
Bliss excess (SH-4 (Melanoma)): -0.0328
Bliss excess (Mewo (Melanoma)): -0.0477
Bliss excess [9]: -0.0533
Bliss excess [10]: 0.0136
Bliss excess [11]: 0.0425
Bliss excess (NB14 (Neuroblastoma)): -0.0955
Bliss excess [12]: -0.0334
Bliss excess (NCI-H2461 (Mesothelioma)): -0.0293
Bliss excess [13]: 0.0012
